Source: ChEMBL document CHEMBL3779779, “Discovery of non-peptide small molecular CXCR4 antagonists as anti-HIV agents: Recent advances and future opportunities” (Eur J Med Chem, 2016)
Each block holds one compound with its values, some of them ahead of it.

Key:
[1] = system: Human immunodeficiency virus 1; experiment: Antiviral activity against HIV1 3B infected in human MT4 cells assessed as reduction in virus-induced cytopathic effect after 5 days by MTT assay; format: functional, organism-based; conditions: Human immunodeficiency virus 1, 3B, MT4, 120 h
[2] = Selectivity index, ratio of CC50 for human MT4 cells to EC50 for HIV1 3B infected in human MT4 cells; format: toxicity, cell-based; conditions: read-out: Ratio CC50/EC50
[3] = biological target: C-X-C chemokine receptor type 4 (Homo sapiens, UniProt P61073); experiment: Displacement of [125I]SDF-1 from human CXCR4 expressed in HEK293 cell membrane; format: cell membranes
[4] = system: Human immunodeficiency virus; experiment: Antiviral activity against HIV LAV Clade B infected in human MT4 cells assessed as inhibition of syncytia formation preincubated with cells for 1 hr followed by viral infection […] by inverted optical microscopic analysis; format: functional, organism-based; conditions: Human immunodeficiency virus 1, LAV Clade B
[5] = Selectivity index, ratio of CC50 for human MT4 cells to EC50 for HIV LAV Clade B infected in human MT4 cells; format: toxicity, cell-based; conditions: read-out: Ratio CC50/EC50
[6] = system: Human immunodeficiency virus 1; experiment: Antiviral activity against HIV1 clinical isolate X4 by cell based assay; format: functional, organism-based; conditions: Human immunodeficiency virus 1, isolate X4
[7] = system: Human immunodeficiency virus 1; experiment: Antiviral activity against HIV1 clinical isolate R5 by cell based assay; format: functional, organism-based; conditions: Human immunodeficiency virus 1, isolate R5
[8] = system: Human immunodeficiency virus 1; experiment: Antiviral activity against HIV1 clinical isolate R5/X4 by cell based assay; format: functional, organism-based; conditions: Human immunodeficiency virus 1, isolate R5/X4
[9] = system: Human immunodeficiency virus 1; experiment: Antiviral activity against HIV1 NL4-3 clinical isolate X4 infected in human MT4 cells assessed as reduction in virus-induced cytopathic effect after 5 days by MTT assay; format: functional, organism-based; conditions: Human immunodeficiency virus 1, NL4-3 isolate X4, MT4, 120 h
[10] = system: Human immunodeficiency virus 1; experiment: Antiviral activity against HIV1 infected in human MT4 cells assessed as reduction in virus-induced cytopathic effect after 4 to 5 days by MTS assay; format: functional, organism-based; conditions: Human immunodeficiency virus 1, MT4
[11] = Elimination half life in dog plasma at 0.41 mg/kg, iv and 0.41 to 2.05 mg/kg, sc by LC-MS/MS analysis; format: ADME, organism-based, Canis lupus familiaris; conditions: read-out: beta t1/2 (converted)
[12] = Tmax in Swiss Webster mouse plasma at 25 mg/kg, sc by LC-MS/MS analysis; format: ADME, organism-based
[13] = system: Human immunodeficiency virus 2; experiment: Antiviral activity against HIV2 ROD infected in human MT4 cells assessed as reduction in virus-induced cytopathic effect after 5 days by MTT assay; conditions: Human immunodeficiency virus 2, ISOLATE ROD, MT4, 120 h

Sequence of C-X-C chemokine receptor type 4 (P61073 whole entry): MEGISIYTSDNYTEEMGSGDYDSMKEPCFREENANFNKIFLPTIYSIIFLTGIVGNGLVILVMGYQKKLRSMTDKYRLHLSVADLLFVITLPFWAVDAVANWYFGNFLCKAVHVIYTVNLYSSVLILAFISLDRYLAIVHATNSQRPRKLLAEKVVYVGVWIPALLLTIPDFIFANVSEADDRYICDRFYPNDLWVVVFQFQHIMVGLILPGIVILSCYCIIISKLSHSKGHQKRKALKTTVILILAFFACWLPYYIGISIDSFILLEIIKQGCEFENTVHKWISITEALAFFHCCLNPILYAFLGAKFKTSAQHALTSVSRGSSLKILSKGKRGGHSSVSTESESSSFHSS

SMILES: c1cc(CN2CCCSCCSCCCNCC2)ccc1CN1CCCSCCSCCCNCC1
EC50 [1]: > 6800 nM

SMILES: c1cc(CN2CCCOCCOCCCNCC2)ccc1CN1CCCOCCOCCCNCC1
EC50 [1]: > 363000 nM

SMILES: C1CNCCNCCCN[C@H]([C@@H]2CNCCCNCCNCCCN2)CNC1
EC50 [1]: 100 nM
selectivity ratio [2]: > 1000

SMILES: C1CNCCNCCCN(CCCN2CCCNCCNCCCNCC2)CCNC1
EC50 [1]: 248 nM
selectivity ratio [2]: > 2500

EC50 [3]: 68.4 nM
SMILES: c1ccc2c(NC3CCNCC3)nc(NCc3ccc(CNCCCNC4CCCCC4)cc3)nc2c1

EC50 [4]: 5 nM
SMILES: Cc1cn([C@H]2C[C@H](N=[N+]=[N-])[C@@H](COC(=O)CCCCN3CCCN(Cc4ccc(CN5CCCNCCNCCCNCC5)cc4)CCNCCCNCC3)O2)c(=O)[nH]c1=O
selectivity ratio [5]: 15000

SMILES: c1cc(CN2CCCNCCOCCCNCC2)ccc1CN1CCCNCCOCCCNCC1
EC50 [1]: 4500 nM

EC50 [4]: 10 nM
SMILES: Cc1cn([C@H]2C[C@H](N=[N+]=[N-])[C@@H](COC(=O)CCCCN3CCCNCCNCCCNCC3)O2)c(=O)[nH]c1=O

SMILES: CC(C)CN(CCC[C@H](NC(=O)c1ccc(CNCc2ncc[nH]2)cc1)C(=O)N[C@@H](C)c1cccc2ccccc12)CC(C)C
EC50 [1]: 6.7 nM

EC50 [4]: 5 nM
SMILES: Cc1cn([C@H]2C[C@H](N=[N+]=[N-])[C@@H](COC(=O)CCCCN3CCCN(Cc4ccc(CN5CCCN(C(=O)OC(C)(C)C)CCN(C(=O)OC(C)(C)C)CCCN(C(=O)OC(C)(C)C)CC5)cc4)CCN(C(=O)OC(C)(C)C)CCCN(C(=O)OC(C)(C)C)CC3)O2)c(=O)[nH]c1=O
selectivity ratio [5]: 1000

SMILES: c1cc(CN2CCCNCCCCCCNCC2)ccc1CN1CCCNCCCCCCNCC1
EC50 [1]: 9600 nM

EC50 [6]: 1200 nM
EC50 [7]: 1200 nM
EC50 [8]: 1200 nM
SMILES: Clc1cc(CN2CCCNCCNCCCNCC2)cc(Cl)n1

SMILES: CCCN(CCC)CCCCNC(=O)c1ccc(CN(Cc2ncc[nH]2)Cc2ncc[nH]2)cc1
EC50 [1]: 4 nM

SMILES: Cn1c(CN(CCN2CCCCC2)CC2CCCN(C3CCCC3)C2)nc2ccccc21 (centres undefined)
EC50 [9]: 600 nM

half-life [11]: 93.6 min
Tmax [12]: 15 min
SMILES: c1ccc(CNCc2ccc(CN3CCCNCCNCCCNCC3)cc2)nc1
EC50 [10]: 1 nM

SMILES: c1cc(CN2CCCNCCNCCCNCC2)ccc1CN1CCCNCCNCCCNCC1 [PLERIXAFOR]
EC50 [13]: 2 nM
